This note sets out measurements from patent US5472966A, “Antidepressant heteroarylaminoalkyl derivatives of naphthyl-monazines” (Bristol-Myers Squibb Company, priority 1995, dated 1995).

Counter-ions that a name gives are not always drawn.

The assay deals with serotonin re-uptake (synaptosomal re-uptake of tritiated serotonin). Briefly: Inhibition of synaptosomal re-uptake of tritiated serotonin. The settings on record: in vitro; nM of test compound that inhibits uptake by 50%; read-out: SUI (Serotonin Uptake Inhibition potency), in vitro IC50. The format is biochemical. On the procedure: Determination of endogenous monoaminergic re-uptake inhibition values for serotonin was accomplished using test methods described by P. Skolnick, et al., Br. J. Pharmacology, (1985), 86, pp. 637-644; with only minor modifications. In vitro IC50 (nM) test values were determined for representative compounds of Formula I based on their inhibition of synaptosomal re-uptake of tritiated serotonin. Test data IC50 values lower than 500 nM are considered to reflect activity as an inhibitor of serotonin re-uptake.
As a reminder, the IC50 is the concentration needed to halve the response being measured. For `CN(CCCN1CC=C(c2cccc3ccccc23)CC1)c1ccnc(Cl)c1` [Example 20, 3,6-dihydro-N-methyl-N-(2-chloro-4-pyridinyl)-4-(1-naphthalenyl)-1(2H)-pyridinepropanamine fumarate], the IC50 is under 10 nM. Next, `COc1cncnc1NCCCN1CC=C(c2cccc3ccc(F)cc23)CC1` [Example 24, 3,6-dihydro-4-(7-fluoro-1-naphthalenyl)-N-(5-methoxy-4-pyrimidinyl-1(2H)-pyridinepropanamine fumarate]: under 500 nM; `FC(F)(F)c1ccnc(NCCCN2CC=C(c3cccc4ccccc34)CC2)c1` [Example 37, 3,6dihydro-N-(4-trifluromethyl-2-pyridinyl)-4-(1-napthalenyl-1(2H)-pyridinepropanamine fumarate]: under 100 nM. Next, `COc1ccc2cccc(C3=CCN(CCCNc4ncncc4OC)CC3)c2c1` [Example 23, 3,6-dihydro-4-(7-methoxy-1-naphthalenyl)-N-(5-methoxy-4-pyrimidinyl)-1(2H)-pyridinepropanamine fumarate]: under 100 nM. Next, `CCOc1cccnc1NCCCN1CC=C(c2cccc3ccccc23)CC1` [Example 34, 3,6-dihydro-N-(3-ethoxy-2-pyridinyl)-4-(1-naphthalenyl)-1(2H)-pyridinepropanamine fumarate]: under 10 nM; `COc1nccnc1NCCCN1CC=C(c2cccc3ccccc23)CC1` [Example 31, 3,6-dihydro-4-(1-naphthalenyl)-N-(3-methoxy-2-pyrazinyl)-1(2H)-pyridinepropanamine fumarate]: under 10 nM. On to `COc1cncnc1NCCN1CC=C(c2cccc3ccccc23)CC1` [Example 26, 3.6-dihydro-4-(1-naphthalenyl)-N-(5-methoxy-4-pyrimidinyl)-1(2H)-pyridineethanamine fumarate], for which the IC50 was under 100 nM.

Turning to `CCN(CCCN1CC=C(c2cccc3ccccc23)CC1)c1ncncc1OC` [Example 22, 3,6-dihydro-N-(5-methoxy-4-pyrimidinyl)-N-ethyl-4-(1-naphthalenyl)-1(2H)-pyridinepropanamine fumarate], the IC50 was under 10 nM. The same measure for `FC(F)(F)c1cccc(NCCCN2CC=C(c3cccc4ccccc34)CC2)n1` [Example 35, 3,6-dihydro-N-(6-trifluoromethyl-2-pyridinyl)-4-(1-napthalenyl)-1(2H)-pyridinepropanamine fumarate]: under 100 nM; for `COc1cncnc1N(C)CCCN1CC=C(c2cccc3ccccc23)CC1` [Example 21, 3,6-dihydro-N-(5-methoxy-4-pyrimidinyl)-N-methyl-4-(1-naphthalenyl)-1(2H)-pyridinepropanamine fumarate]: under 10 nM; for `COc1cncnc1NCCCN1CC=C(c2cccc3ccccc23)CC1` [Example 27, 3.6-dihydro-4-(1-naphthalenyl)-N-(5-methoxy-4-pyrimidinyl)-1(2H)-pyridinepropanamine hydrochloride]: under 10 nM. Next, `CCOc1cncnc1NCCCN1CC=C(c2cccc3ccccc23)CC1` [Example 28, 3,6-dihydro-4-(1-naphthalenyl)-N-(5-ethoxy-4-pyrimidinyl)-1-(2H)-pyridinepropanamine fumarate]: under 10 nM.

With `COc1cnccc1NCCCN1CC=C(c2cccc3ccccc23)CC1` [Example 29, 3,6-dihydro:4-(1-naphthalenyl)-N-(3-methoxy-4-pyridinyl)-1(2H)-pyridinepropanamine fumarate], the IC50 was under 100 nM.

For the molecule `COc1cncnc1NCCCN1CC=C(c2cccc3ccc(Cl)cc23)CC1` [Example 25, 3,6-dihydro-4-(7-chloro-1-naphthalenyl)-N-(5-methoxy-4-pyrimidinyl)-1(2H)-pyridinepropanamine fumarate], the IC50 was under 500 nM. The same measure for `COc1cncnc1NCCCN1CCC(c2cccc3ccccc23)CC1` [Example 38, 4-(1-naphthalenyl)-N-(5-methoxy-4-pyrimidinyl)-1-piperidinepropanaminefumarate]: under 10 nM; for `Clc1nccnc1NCCCN1CC=C(c2cccc3ccccc23)CC1` [Example 30, 3,6-dihydro-4-(1-naphthalenyl)-N-(3-chloro-2-pyrazinyl)-1(2H)-pyridinepropanamine fumarate]: under 10 nM; for `COc1ccccc1NCCCN1CC=C(c2cccc3ccccc23)CC1` [Example 40, 3,6-dihydro-N-(2-methoxyphenyl)-4-(1-naphthalenyl)-1-(2H)-pyridinepropanamine fumarate]: under 10 nM. In the case of `Clc1cccc(NCCCN2CC=C(c3cccc4ccccc34)CC2)c1` [Example 41, 3,6-dihydro-N-(3-chlorophenyl)-4-(1-naphthalenyl)-1(2H)-pyridinepropanamine fumarate], the IC50 was under 100 nM. With `CN(CCCN1CC=C(c2cccc3ccccc23)CC1)c1cccc(C(F)(F)F)n1` [Example 18, 3,6-dihydro-N-methyl-N-(6-trifluoromethyl-2-pyridinyl)-4-(1-naphthalenyl)-1(2H)-pyridinepropanamine fumarate], the half-inhibitory concentration (IC50) is under 100 nM. The same measure for `C1=C(c2cccc3ccccc23)CCN(CCCNc2cccc3ccccc23)C1` [Example 39, 3,6-dihydro-N-(1-naphthalenyl)-4-(1-naphthalenyl)-1(2H)-pyridinepropanamine fumarate]: under 10 nM; for `COc1cccnc1N(C)CCCN1CC=C(c2cccc3ccccc23)CC1` [Example 14, 3,6-dihydro-N-(3-methoxy-2-pyridinyl)-N-methyl-4-(1-naphthalenyl)-1(2H)-pyridinepropanamine fumarate]: under 100 nM. With `FC(F)(F)c1cccc(NCCCN2CC=C(c3cccc4ccccc34)CC2)c1` [Example 42, 3,6-dihydro-N-(3-trifluoromethylphenyl)-4-(1-naphthalenyl)-1(2H)-pyridinepropanamine fumarate], the 50% inhibitory concentration (IC50) was under 100 nM. The same measure for `CN(CCCN1CC=C(c2cccc3ccccc23)CC1)c1ccc(Cl)cn1` [Example 17, 3,6-dihydro-N-methyl-N-(5-chloro-2-pyridinyl)-4-(1-naphthalenyl)-1(2H)-pyridinepropanamine fumarate]: under 10 nM. The same measure for `CN(CCCN1CC=C(c2cccc3ccccc23)CC1)c1cc(Cl)ccn1` [Example 19, 3,6.dihydro-N-methyl-N-(4-chloro-2-pyridinyl)-4-(1-naphthalenyl)-1(2H)-pyridinepropanamine]: under 100 nM.

For the molecule `CCOc1cccnc1N(C)CCCN1CC=C(c2cccc3ccccc23)CC1` [Example 15, 3,6-dihydro-N-(3-ethoxy-2-pyridinyl)-N-methyl-4-(1-naphthalenyl)-1(2H)-pyridinepropanamine fumarate], the IC50 was under 100 nM. The same measure for `COc1cncnc1NCCCCN1CC=C(c2cccc3ccccc23)CC1` [Example 32, 3,6-dihydro-N-(5-methoxy-4-pyrimidinyl)-4-(1-naphthalenyl)-1(2H)-pyridinebutanamine fumarate]: under 100 nM; for `Clc1ccc(NCCCN2CC=C(c3cccc4ccccc34)CC2)nc1` [Example 36, 3,6-dihydro-N-(5-chloro-2-pyridinyl)-4-(1-naphthalenyl)-1(2H)-pyridinepropanamine fumarate]: under 10 nM; for `COc1cccnc1NCCCN1CC=C(c2cccc3ccccc23)CC1` [Example 33, 3,6-dihydro-N-(3-methoxy-2-pyridinyl)-4-(1-naphthalenyl)-1(2H)pyridinepropanamine fumarate]: under 10 nM. Next, `CN(CCCN1CC=C(c2cccc3ccccc23)CC1)c1cc(C(F)(F)F)ccn1` [Example 16, 3,6-dihydro-N-methyl-N-(4-trifluoromethyl-2-pyridinyl)-4-(1-naphthalenyl)-1(2H)-pyridinepropanamine fumarate]: under 100 nM.
